According to patent US10428083B2, “Heterocyclylmethyl-thienouracile as antagonists of the adenosine-A2B-receptor” (BAYER PHARMA AKTIENGESELLSCHAFT, priority 2015, dated 2019):

molecular target: human adenosine A2b receptor (Homo sapiens (Human), UniProt P29275); assay: Cellular in vitro reporter gene test for A2b receptor activity (CHO-K1, CRE-luciferase, NECA stimulation); format: cell-based; conditions: recombinant CHO-K1 cell line, CRE-luciferase reporter, antagonism of EC50 concentration of NECA; in some cases means of several determinations, rounded to two significant figures; read-out: A2b receptor IC50
Sequence (P29275 whole entry): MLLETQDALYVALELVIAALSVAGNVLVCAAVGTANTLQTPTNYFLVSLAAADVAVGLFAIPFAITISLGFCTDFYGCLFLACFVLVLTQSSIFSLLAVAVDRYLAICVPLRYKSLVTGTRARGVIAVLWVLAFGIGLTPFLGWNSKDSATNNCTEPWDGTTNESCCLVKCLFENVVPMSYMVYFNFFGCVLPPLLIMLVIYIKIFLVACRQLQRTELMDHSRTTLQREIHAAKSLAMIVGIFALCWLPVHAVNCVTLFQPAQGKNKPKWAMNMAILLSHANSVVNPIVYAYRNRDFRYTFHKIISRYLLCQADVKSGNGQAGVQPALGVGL
Summary of the method: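 CHO-K1 cells with CRE-driven luciferase; antagonists co-incubated with NECA at its EC50, determined in a pre-experiment on each test day. Luciferase read by luminescence 3 h after NECA addition.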

Compound	IC50
COC(C)(C)Cn1c(=O)c2c(C)c(CN3CCNC(=O)C3=O)sc2n(CCCF)c1=O [Example 280, 6-[(2,3-Dioxopiperazin-1-yl)methyl]-1-(3-fluoropropyl)-3-(2-methoxy-2-methylpropyl)-5-methylthieno[2,3-d]pyrimidine-2,4(1H,3H)-dione]	82 nM
COCCn1c(=O)n(CC(C)(C)OC)c(=O)c2c(C)c(CN3CCNC(=O)C3=O)sc21 [Example 281, 6-[(2,3-Dioxopiperazin-1-yl)methyl]-1-(2-methoxyethyl)-3-(2-methoxy-2-methylpropyl)-5-methylthieno[2,3-d]pyrimidine-2,4(1H,3H)-dione]	46 nM
Cc1c(Cn2[nH]ccc2=O)sc2c1c(=O)n(CC(F)(F)F)c(=O)n2CCC(F)(F)F [Example 282, 5-Methyl-6-[(5-oxo-2,5-dihydro-1H-pyrazol-1-yl)methyl]-3-(2,2,2-trifluoroethyl)-1-(3,3,3-trifluoropropyl)thieno[2,3-d]pyrimidine-2,4(1H,3H)-dione]	30 nM
COCCn1c(=O)n(CC(F)(F)F)c(=O)c2c(C)c(Cn3[nH]ccc3=O)sc21 [Example 283, 1-(2-Methoxyethyl)-5-methyl-6-[(5-oxo-2,5-dihydro-1H-pyrazol-1-yl)methyl]-3-(2,2,2-trifluoroethyl)thieno[2,3-d]pyrimidine-2,4(1H,3H)-dione]	79 nM
COCCn1c(=O)c2c(C)c(Cn3[nH]ccc3=O)sc2n(CCC(F)(F)F)c1=O [Example 287, 3-(2-Methoxyethyl)-5-methyl-6-[(5-oxo-2,5-dihydro-1H-pyrazol-1-yl)methyl]-1-(3,3,3-trifluoropropyl)thieno[2,3-d]pyrimidine-2,4(1H,3H)-dione]	63 nM
COCCn1c(=O)c2c(C)c(Cn3[nH]ccc3=O)sc2n(CCOC)c1=O [Example 288, 1,3-Bis(2-methoxyethyl)-5-methyl-6-[(5-oxo-2,5-dihydro-1H-pyrazol-1-yl)methyl]thieno[2,3-d]pyrimidine-2,4(1H,3H)-dione]	140 nM
CCn1c(=O)c2c(C)c(CN3CCNC3=S)sc2n(CF)c1=O [Example 292, 3-Ethyl-1-(fluoromethyl)-5-methyl-6-[(2-thioxoimidazolidin-1-yl)methyl]thieno[2,3-d]pyrimidine-2,4(1H,3H)-dione]	8.3 nM
CCn1c(=O)c2c(C)c(CN3CCNC3=S)sc2n(CCOC2CCCC2)c1=O [Example 293, 1-[2-(Cyclopentyloxy)ethyl]-3-ethyl-5-methyl-6-[(2-thioxoimidazolidin-1-yl)methyl]thieno[2,3-d]pyrimidine-2,4(1H,3H)-dione]	120 nM
CCSCCn1c(=O)n(CC)c(=O)c2c(C)c(CN3CCNC3=S)sc21 [Example 294, 3-Ethyl-1-[2-(ethylsulphanyl)ethyl]-5-methyl-6-[(2-thioxoimidazolidin-1-yl)methyl]thieno[2,3-d]pyrimidine-2,4(1H,3H)-dione]	20 nM
CCn1c(=O)c2c(C)c(CN3CCNC3=S)sc2n(CCS(C)(=O)=O)c1=O [Example 295, 3-Ethyl-5-methyl-1-[2-(methylsulphonyl)ethyl]-6-[(2-thioxoimidazolidin-1-yl)methyl]thieno[2,3-d]pyrimidine-2,4(1H,3H)-dione]	220 nM
CCn1c(=O)c2c(C)c(CN3CCNC3=S)sc2n(CCCOC)c1=O [Example 296, 3-Ethyl-1-(3-methoxypropyl)-5-methyl-6-[(2-thioxoimidazolidin-1-yl)methyl]thieno[2,3-d]pyrimidine-2,4(1H,3H)-dione]	16 nM
Cc1c(CN2CCNC2=S)sc2c1c(=O)n(C(C)C)c(=O)n2C [Example 297, 3-Isopropyl-1,5-dimethyl-6-[(2-thioxoimidazolidin-1-yl)methyl]thieno[2,3-d]pyrimidine-2,4(1H,3H)-dione]	17 nM
Cc1c(CN2CCNC2=S)sc2c1c(=O)n(C(C)C)c(=O)n2CCCF [Example 298, 1-(3-Fluoropropyl)-3-isopropyl-5-methyl-6-[(2-thioxoimidazolidin-1-yl)methyl]thieno[2,3-d]pyrimidine-2,4(1H,3H)-dione]	2.4 nM
CCOCCn1c(=O)c2c(C)c(CN3CCNC3=S)sc2n(CCC(F)(F)F)c1=O [Example 301, 3-(2-Ethoxyethyl)-5-methyl-6-[(2-thioxoimidazolidin-1-yl)methyl]-1-(3,3,3-trifluoropropyl)thieno[2,3-d]pyrimidine-2,4(1H,3H)-dione]	6.5 nM
CCOCCn1c(=O)c2c(C)c(CN3CCNC3=S)sc2n(CCOC)c1=O [Example 302, 3-(2-Ethoxyethyl)-1-(2-methoxyethyl)-5-methyl-6-[(2-thioxoimidazolidin-1-yl)methyl]thieno[2,3-d]pyrimidine-2,4(1H,3H)-dione]	14 nM
Cc1c(CN2CCN(C(C)C)C2=S)sc2c1c(=O)n(CC(C)C)c(=O)n2CCCF [Example 304, 1-(3-Fluoropropyl)-3-isobutyl-6-[(3-isopropyl-2-thioxoimidazolidin-1-yl)methyl]-5-methylthieno[2,3-d]pyrimidine-2,4(1H,3H)-dione]	73 nM
Cc1c(CN2CCN(C(C)C)C2=S)sc2c1c(=O)n(CC(F)(F)F)c(=O)n2C [Example 305, 6-[(3-Isopropyl-2-thioxoimidazolidin-1-yl)methyl]-1,5-dimethyl-3-(2,2,2-trifluoroethyl)thieno[2,3-d]pyrimidine-2,4(1H,3H)-dione]	140 nM

The remaining lines, values ahead:

IC50	Compound
5.9 nM	Cc1c(CN2CCN(C)C2=S)sc2c1c(=O)n(CC(F)(F)F)c(=O)n2CCC(F)(F)F [Example 306, 5-Methyl-6-[(3-methyl-2-thioxoimidazolidin-1-yl)methyl]-3-(2,2,2-trifluoroethyl)-1-(3,3,3-trifluoropropyl)thieno[2,3-d]pyrimidine-2,4(1H,3H)-dione]
8.1 nM	CCn1c(=O)c2c(C)c(CN3CCNC3=O)sc2n(CF)c1=O [Example 307, 3-Ethyl-1-(fluoromethyl)-5-methyl-6-[(2-oxoimidazolidin-1-yl)methyl]thieno[2,3-d]pyrimidine-2,4(1H,3H)-dione]
140 nM	CCn1c(=O)c2c(C)c(CN3CCNC3=O)sc2n(CCOC2CCCC2)c1=O [Example 308, 1-[2-(Cyclopentyloxy)ethyl]-3-ethyl-5-methyl-6-[(2-oxoimidazolidin-1-yl)methyl]thieno[2,3-d]pyrimidine-2,4(1H,3H)-dione]
36 nM	CCSCCn1c(=O)n(CC)c(=O)c2c(C)c(CN3CCNC3=O)sc21 [Example 309, 3-Ethyl-1-[2-(ethylsulphanyl)ethyl]-5-methyl-6-[(2-oxoimidazolidin-1-yl)methyl]thieno[2,3-d]pyrimidine-2,4(1H,3H)-dione]
370 nM	CCn1c(=O)c2c(C)c(CN3CCNC3=O)sc2n(CCS(C)(=O)=O)c1=O [Example 310, 3-Ethyl-5-methyl-1-[2-(methylsulphonyl)ethyl]-6-[(2-oxoimidazolidin-1-yl)methyl]thieno[2,3-d]pyrimidine-2,4(1H,3H)-dione]
31 nM	CCn1c(=O)c2c(C)c(CN3CCNC3=O)sc2n(CCCOC)c1=O [Example 311, 3-Ethyl-1-(3-methoxypropyl)-5-methyl-6-[(2-oxoimidazolidin-1-yl)methyl]thieno[2,3-d]pyrimidine-2,4(1H,3H)-dione]
22 nM	Cc1c(CN2CCNC2=O)sc2c1c(=O)n(C(C)C)c(=O)n2C [Example 312, 3-Isopropyl-1,5-dimethyl-6-[(2-oxoimidazolidin-1-yl)methyl]thieno[2,3-d]pyrimidine-2,4(1H,3H)-dione]
41 nM	Cc1c(CN2CCNC2=O)sc2c1c(=O)n(C(C)C)c(=O)n2CF [Example 313, 1-(Fluoromethyl)-3-isopropyl-5-methyl-6-[(2-oxoimidazolidin-1-yl)methyl]thieno[2,3-d]pyrimidine-2,4(1H,3H)-dione]
4.7 nM	Cc1c(CN2CCNC2=O)sc2c1c(=O)n(C(C)C)c(=O)n2CCCF [Example 314, 1-(3-Fluoropropyl)-3-isopropyl-5-methyl-6-[(2-oxoimidazolidin-1-yl)methyl]thieno[2,3-d]pyrimidine-2,4(1H,3H)-dione]
4.3 nM	C#CCn1c(=O)c2c(C)c(CN3CCNC3=O)sc2n(CCOC)c1=O [Example 315, 1-(2-Methoxyethyl)-5-methyl-6-[(2-oxoimidazolidin-1-yl)methyl]-3-(prop-2-yn-1-yl)thieno[2,3-d]pyrimidine-2,4(1H,3H)-dione]
1.3 nM	C=CCCn1c(=O)c2c(C)c(CN3CCNC3=O)sc2n(CCOC)c1=O [Example 316, 3-(But-3-en-1-yl)-1-(2-methoxyethyl)-5-methyl-6-[(2-oxoimidazolidin-1-yl)methyl]thieno[2,3-d]pyrimidine-2,4(1H,3H)-dione]
25 nM	CC#CCn1c(=O)c2c(C)c(CN3CCNC3=O)sc2n(CCOC)c1=O [Example 317, 3-(But-2-yn-1-yl)-1-(2-methoxyethyl)-5-methyl-6-[(2-oxoimidazolidin-1-yl)methyl]thieno[2,3-d]pyrimidine-2,4(1H,3H)-dione]
1.4 nM	C#CCCn1c(=O)c2c(C)c(CN3CCNC3=O)sc2n(CCOC)c1=O [Example 318, 3-(But-3-yn-1-yl)-1-(2-methoxyethyl)-5-methyl-6-[(2-oxoimidazolidin-1-yl)methyl]thieno[2,3-d]pyrimidine-2,4(1H,3H)-dione]
2.4 nM	C=C(C)CCn1c(=O)c2c(C)c(CN3CCNC3=O)sc2n(CCOC)c1=O [Example 319, 1-(2-Methoxyethyl)-5-methyl-3-(3-methylbut-3-en-1-yl)-6-[(2-oxoimidazolidin-1-yl)methyl]thieno[2,3-d]pyrimidine-2,4(1H,3H)-dione]
0.44 nM	COCCn1c(=O)n(CCC=C(C)C)c(=O)c2c(C)c(CN3CCNC3=O)sc21 [Example 320, 1-(2-Methoxyethyl)-5-methyl-3-(4-methylpent-3-en-1-yl)-6-[(2-oxoimidazolidin-1-yl)methyl]thieno[2,3-d]pyrimidine-2,4(1H,3H)-dione]
